Assay results taken from patent US20130252286A1, “TRANSFORMANT OF YEAST OF GENUS SCHIZOSACCHAROMYCES, AND METHOD FOR PRODUCING SAME” (ASAHI GLASS COMPANY, LIMITED, priority 2010, published 2013).

B1: AaBGL1: β-glucosidase 1 of Aspergillus aculeatus F-50 secreted by S. pombe ASP3326 strain, crude enzyme after ammonium sulfate and ultrafiltration (protein, listed as Aspergillus aculeatus)
chain: DELAFSPPFYPSPWANGQGEWAEAYQRAVAIVSQMTLDEKVNLTTGTGWELEKCVGQTGGVPRLNIGGMCLQDSPLGIRDSDYNSAFPAGVNVAATWDKNLAYLRGQAMGQEFSDKGIDVQLGPAAGPLGRSPDGGRNWEGFSPDPALTGVLFAETIKGIQDAGVVATAKHYILNEQEHFRQVAEAAGYGFNISDTISSNVDDKTIHEMYLWPFADAVRAGVGAIMCSYNQINNSYGCQNSYTLNKLLKAELGFQGFVMSDWGAHHSGVGSALAGLDMSMPGDITFDSATSFWGTNLTIAVLNGTVPQWRVDDMAVRIMAAYYKVGRDRLYQPPNFSSWTRDEYGFKYFYPQEGPYEKVNHFVNVQRNHSEVIRKLGADSTVLLKNNNALPLTGKERKVAILGEDAGSNSYGANGCSDRGCDNGTLAMAWGSGTAEFPYLVTPEQAIQAEVLKHKGSVYAITDNWALSQVETLAKQASVSLVFVNSDAGEGYISVDGNEGDRNNLTLWKNGDNLIKAAANNCNNTIVVIHSVGPVLVDEWYDHPNVTAILWAGLPGQESGNSLADVLYGRVNPGAKSPFTWGKTREAYGDYLVRELNNGNGAPQDDFSEGVFIDYRGFDKRNETPIYEFGHGLSYTTFNYSGLHIQVLNASSNAQVATETGAAPTFGQVGNASDYVYPEGLTRISKFIYPWLNSTDLKASSGDPYYGVDTAEHVPEGATDGSPQPVLPAGGGSGGNPRLYDELIRVSVTVKNTGRVAGDAVPQLYVSLGGPNEPKVVLRKFDRLTLKPSEETVWTTTLTRRDLSNWDVAAQDWVITSYPKKVHVGSSSRQLPLHAALPKVQ

Experiments:
[1] = biological target: T1, crude AaBGL1 (Aspergillus aculeatus, UniProt P48825); assay: Substrate specificity; format: biochemical; parameters: P3 secretion signal (N, cleaved yes); made in house; host or cells: Schizosaccharomyces pombe ASP3326 strain (transformed with pSL6P3AaBGL1); culture supernatant, ammonium sulfate treatment and ultrafiltration, crude enzyme; settings: 0.5% (w/v) ICOS, 0.5% (w/v) cellobiose, 1 mM pNPG, 1 mM pNP-cellobiose; for Specific activity: pH 4.5, 37° C., 10 minutes; for Relative activity: relative to cellobiose
Description: Measured in accordance with the activity measurement method by using various substrates. The specific activities and relative activities of the enzyme to each of 0.5% (w/v) ICOS, 0.5% (w/v) cellobiose, 1 mM pNPG, and 1 mM pNP-cellobiose are shown in Table 6.
To 100 μl of 2 mM p-nitrophenyl-β-D-cellobioside (hereinafter referred to as pNP-cellobiose), 10 μl of 1 M sodium acetate buffer solution (pH 4.5) and 40 μl of water were added, followed by addition of 50 μl of the diluted enzyme sample to cultivate for 10 minutes at 37° C. 100 μl of the reaction mixture was mixed with 100 μl of 2% sodium carbonate solution to terminate reaction, and then the amount of liberated p-nitrophenol was colorimetrically measured at a wavelength of 450 nm.
The amount of enzyme that produces 1 μmol of p-nitrophenol per minute was defined as 1 U.
(§1) To 100 μl of 1% cellobiose solution, 10 μl of 1M sodium acetate buffer solution (pH 4.5) was added, followed by addition of 90 μl of the diluted enzyme sample to cultivate for 10 minutes at 37° C. 50 μl of 1N HCl was added to terminate reaction, and then 50 μl of a neutralizing solution comprised of 1M Tris solution:2N sodium hydroxide solution in a ratio of 4:1 was added for neutralization to measure the amount of glucose in the mixture by using glucostat method (Glucose kit, Glucose CII-Test Wako, manufactured by Wako Pure Chemical Industries).
The amount of enzyme that produces 1 μmol of glucose per minute was defined as 1 U.
as §1, with “insoluble cellooligosaccharide (hereinafter referred to as ICOS)” for “cellobiose”

[2] = biological target: T1, crude AaBGL1; assay: Inhibition by various sugar; format: biochemical; parameters: P3 secretion signal (N, cleaved yes); made in house; culture supernatant, ammonium sulfate treatment and ultrafiltration, crude enzyme; settings: 1 mM pNPG; for inhibition of crude AaBGL1 by the sugar (in words): 0.1 to 10 mM sugar
Description: To 10 μl of 20 mM p-nitrophenyl-β-D-glucoside (hereinafter abbreviated as pNPG), 10 μl of 1M sodium acetate buffer solution (pH 4.5) and 130 μl of water were added, and then 50 μl of the diluted enzyme sample was introduced for reacting them at 37° C. for 10 minutes. 100 μl of the reaction mixture was mixed with 100 μl of 2% sodium carbonate solution to terminate reaction, and then the amount of liberated p-nitrophenol was colorimetrically measured at a wavelength of 450 nm.
By using 1 mM pNPG containing various sugar (0.1 mM, 1.0 mM, 10 mM) as a substrate, the enzyme was reacted in accordance with the activity measurement method. The numerical values shown in Table 5 indicate the ratio (%) of the measured enzymatic activity to the enzymatic activity under a condition where no sugar is contained.

[3] = Glucose inhibition test; format: biochemical; settings: 1 mM pNPG
Description: With regard to glucose inhibition, the crude enzyme obtained in Test Example 6 was compared with a commercially available β-glucosidase Novozyme 188 (manufactured by Novozymes). The glucose inhibition activity was measured in accordance with the activity measurement method by using 1 mM pNPG as a substrate and adding glucose to the reaction mixture in a concentration of from 0 to 100 mM. The reaction temperature was 37° C., the pH was 4.5, and the reaction time was 10 minutes. The other reaction conditions were the same as in the activity measurement method described in Test Example 4.
With regard to the each culture supernatant, the glucose inhibition activity was measured in accordance with the activity measurement method, by using 1 mM pNPG as a substrate and adding from 0 to 100 mM of glucose to the reaction mixture.

[4] = Thermostability test; format: physicochemical; settings: crude enzyme, treated at each temperature for 10 minutes
Description: The enzyme was treated at each temperature for 10 minutes, and then reacted by using 1 mM pNPG as a substrate and 50 mM acetate buffer solution (pH 4.5). […] (FIG. 5).
With regard to the each culture supernatant, the thermostability test was carried out in accordance with the thermostability measurement method described in Test Example 7 at a temperature of from 50 to 75° C.
With regard to the each purified sample, the thermostability test was carried out in accordance with the thermostability measurement method described in Test Example 7 at a temperature of from 50 to 75° C.

[5] = Optimal temperature test of the crude enzyme; format: biochemical; settings: 1 mM pNPG, 50 mM acetate buffer pH 4.5, 10 minutes
Description: By using 1 mM pNPG as a substrate and 50 mM acetate buffer solution (pH 4.5), the enzyme was reacted for 10 minutes at each temperature. […] (FIG. 3).

Molecule | inhibition of crude AaBGL1 by the sugar (in words) [2] | ratio of enzymatic activity to activity without sugar ([2]; sugar concentration 0.1 mM) [%] | ratio of enzymatic activity to activity without sugar ([2]; sugar concentration 1.0 mM) [%] | ratio of enzymatic activity to activity without sugar ([2]; sugar concentration 10 mM) [%] | also measured
O=C[C@H](O)[C@@H](O)[C@H](O[C@@H]1O[C@H](CO)[C@@H](O)[C@H](O)[C@H]1O)[C@H](O)CO [Cellobiose] | – | – | – | – | Specific activity [1]: 42.1 U/mg; Relative activity [1]: 100%
O=C(CO)[C@@H](O)[C@H](O)[C@H](O)CO [Fructose] | not substantially inhibited | 99 | 106 | 115 | –
O=C[C@H](O)[C@@H](O)[C@@H](O)[C@H](O)CO [Galactose] | not substantially inhibited | 97 | 98 | 101 | –
OC[C@H]1O[C@@H](O[C@H]2[C@H](O)[C@@H](O)C(O)O[C@@H]2CO)[C@H](O)[C@@H](O)[C@H]1O (stereo partly drawn) [Lactose] | not substantially inhibited | 99 | 100 | 100 | –
OC[C@H]1O[C@H](O[C@H]2[C@H](O)[C@@H](O)[C@H](O)O[C@@H]2CO)[C@H](O)[C@@H](O)[C@@H]1O [Maltose] | inhibited | 99 | 93 | 68 | –
OC[C@@H](O)[C@@H](O)[C@H](O)[C@@H](O)CO [Sorbitol] | not substantially inhibited | 98 | 99 | 101 | –
OC[C@H]1O[C@@](CO)(O[C@H]2O[C@H](CO)[C@@H](O)[C@H](O)[C@H]2O)[C@@H](O)[C@@H]1O [Sucrose] | not substantially inhibited | 96 | 99 | 98 | –
O=C[C@H](O)[C@@H](O)[C@H](O)CO [Xylose] | not substantially inhibited | 98 | 99 | 100 | –
O=[N+]([O-])c1ccc(O[C@@H]2O[C@H](CO)[C@@H](O[C@@H]3O[C@H](CO)[C@@H](O)[C@H](O)[C@H]3O)[C@H](O)[C@H]2O)cc1 [pNP-cellobiose, p-nitrophenyl-β-D-cellobioside] | – | – | – | – | Specific activity [1]: 9.3 U/mg; Relative activity [1]: 22%
O=[N+]([O-])c1ccc(O[C@@H]2O[C@H](CO)[C@@H](O)[C@H](O)[C@H]2O)cc1 [pNPG, p-nitrophenyl-β-D-glucoside] | – | – | – | – | Specific activity [1]: 25.7 U/mg; Relative activity [1]: 61%
B1 | – | – | – | – | resistance to glucose inhibition (comparison in words) ([3]; glucose 0 to 100 mM): more resistant to glucose inhibition than Novozyme 188; IC50 ([3]; glucose 0 to 100 mM, 37° C., pH 4.5, 10 minutes, read-out: glucose concentration (I50 value) at which 50% inhibition of the enzymatic activity occurs): 25 mM; activity maintained in the presence of glucose ([3]; 20 mM of glucose added): at least 50%; thermostability: stable until [4]: about 60 °C; optimal temperature [5]: about 65 °C
